# Data published in patent publication US11155612B2, “vNAR antibody which binds VEGF for use in dogs or cats” (CENTRO DE INVESTIGACIÓN CIENTÍFICA Y DE EDUCACIÓN SUPERIOR …, priority 2017, dated 2021).
# System: human umbilical vein endothelial cells (HUVEC) expressing GFP and normal human dermal fibroblasts (NHDF)
# Assay: Angiogenesis assay (vascular tube formation, HUVEC/NHDF co-culture)
# Type: cell-based
# Settings: VEGF 4 ng/ml; 100 μM suramin positive control
# Procedure: In the vascular tube formation assay, a co-culture system of human umbilical vein endothelial cells (HUVEC) expressing GFP and normal human dermal fibroblasts (NHDF) was used. For cell seeding on day 0, one cryogenic vial of NHDF cells was thawed and resuspended in 12 ml of complete seeding medium. Then, 100 μl of this solution was added per well of a 96-well plate. The cells were incubated at room temperature for 1 hour. Then, 1 cryogenic vial of HUVECs was thawed and resuspended in 12 ml of complete seeding medium. HUVEC (100 μL per well) were seeded into the same plate as NHDFs. The cells were incubated at room temperature for another hour. The plate was then examined in an IncuCyte ZOOM and scanned using the “FOIL” scan type. After 24 hours, the culture medium was replaced with 150 μl of growth medium.
# Forty-eight hours after seeding, the cells were treated with VEGF at 4 ng/ml and the test compounds at eight concentrations.
# Serial dilutions of the compounds were prepared using assay media containing VEGF up to the final concentrations in FIG. 3. Then, 150 μl of medium containing the vNARs were added. In untreated wells, media without VEGF were added. For wells without compound, media with VEGF was added. […]
# The formation of vessel tubes by fluorescently-labeled HUVECs was measured using live-cell imaging, and the effects of the vNARs on this process were assessed.
structure (smiles),measurement,value
"Cc1ccc(C(=O)Nc2ccc(S(=O)(=O)O)c3cc(S(=O)(=O)O)cc(S(=O)(=O)O)c23)cc1NC(=O)c1cccc(NC(=O)Nc2cccc(C(=O)Nc3cc(C(=O)Nc4ccc(S(=O)(=O)O)c5cc(S(=O)(=O)O)cc(S(=O)(=O)O)c45)ccc3C)c2)c1 [suramin, reference compound]",inhibition of VEGF-increased tube branching,inhibited
